Columns and labels:
dNS3 [1] = target: T1, dNS3 (Hepatitis C virus genotype 1b, UniProt P26663, A1092G/F1173S/K1113A/P1112Q/S1165A); assay type: cell-based, hepatitis C virus (HCV); conditions: dNS3-NLuc and CLuc-PMED; HEK293FT lysates; drug added at time of transfection, 48 hours
T1 construct: expressed in transfected cells; host or cells: HEK293FT (read in lysate)
Experimental: To test this, permutations of dNS3, NS3wT and each peptide variant were fused to split fragments of Renilla luciferase (FIG. 2A).
(§1) Luciferase assay. HEK293FT cells were transfected with split luciferase constructs. In the case of drug pretreatment for dose curve experiments, drug was added at the indicated concentration at the time of transfection. Two days later, the transfected cells were lysed with 1× Ex Luciferase Assay Buffer using the Nano-Glo® Dual-Luciferase® Reporter Assay System (Promega). Immediately after, the samples were treated with an additional volume of 1× Ex Luciferase Assay Buffer with the indicated concentration of drug.
(§2) The samples were then read with a plate reader once per minute measuring luminescence with 500 millisecond exposure time. […] For kinetics analysis, linear regression analysis was performed on the untreated samples and used to normalize the data for the treated samples.

[2] = target: telaprevir inducible (TI) NS3 (Hepatitis C virus genotype 1b, UniProt P26663, D1194Y/F1069L/Q1106K/S1148R); assay type: cell-based, hepatitis C virus (HCV); conditions: telaprevir (10 pM); flow cytometry 48 hours post-drug addition
Description: (§3) To accomplish this, it was sought to make orthogonal inducible Cre recombinases.
(§4) For Cre recombinase control in mammalian cells, live cells were gated in the same manner as above and gated for transfection by either a co-transfection marker of pmiRFP670-N1 or inter-plasmatic constitutive expression of iRFP670 under a separate constitutive promoter. Cells were further deemed as GFP positive if their fluorescence intensity was greater than or equal to the top 1% of non-transfected cells. Baseline activation of GFP positive cells was then subtracted using transfection marker only cells as baseline for all measurements.

[3] = target: NS3(TI) with S139A mutation (Hepatitis C virus genotype 1b, UniProt P26663, D1194Y/F1069L/Q1106K/S1148R/S1165A); assay type: cell-based, hepatitis C virus (HCV); conditions: among the three drugs tested (grazoprevir, asunaprevir, telaprevir)
Description: as §3, §4

dNS3 [4] = target: T1, dNS3; assay type: biochemical, hepatitis C virus (HCV); conditions: saturating drug concentrations; 3 pM of each drug added at time of lysis
Experimental: as §1, §2

dNS3-Cre-PHI = dNS3-Cre-PHI (Hepatitis C virus genotype 1b, UniProt P26663, A1092G/F1173S/K1113A/P1112Q/S1165A); conditions: catalytic NS3 S139A mutation (dNS3)
Description: as §4

wild-type NS3 = wild-type NS3 (Hepatitis C virus genotype 1b, UniProt P26663, A1092G/F1173S/K1113A/P1112Q); assay type: cell-based, hepatitis C virus (HCV); conditions: NS3WT-NLuc and CLuc-PMED; compared with dNS3
Experimental: as §1, §2

T1 sequence (P26663 1027-1206 A1092G/P1112Q/K1113A/S1165A/F1173S): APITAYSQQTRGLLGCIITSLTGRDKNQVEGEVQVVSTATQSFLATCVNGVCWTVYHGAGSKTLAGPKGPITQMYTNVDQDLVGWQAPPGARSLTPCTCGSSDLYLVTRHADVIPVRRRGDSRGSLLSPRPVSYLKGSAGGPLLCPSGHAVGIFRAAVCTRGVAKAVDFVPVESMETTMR
Sequence of telaprevir inducible (TI) NS3 (P26663 1027-1206 F1069L/A1092G/Q1106K/P1112Q/K1113A/S1148R/F1173S/D1194Y): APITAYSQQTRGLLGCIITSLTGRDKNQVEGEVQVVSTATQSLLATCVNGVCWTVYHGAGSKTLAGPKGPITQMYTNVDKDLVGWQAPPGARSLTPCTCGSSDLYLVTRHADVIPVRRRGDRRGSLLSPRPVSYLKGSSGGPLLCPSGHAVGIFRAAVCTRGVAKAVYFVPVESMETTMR
Sequence of wild-type NS3 (P26663 1027-1206 A1092G/P1112Q/K1113A/F1173S): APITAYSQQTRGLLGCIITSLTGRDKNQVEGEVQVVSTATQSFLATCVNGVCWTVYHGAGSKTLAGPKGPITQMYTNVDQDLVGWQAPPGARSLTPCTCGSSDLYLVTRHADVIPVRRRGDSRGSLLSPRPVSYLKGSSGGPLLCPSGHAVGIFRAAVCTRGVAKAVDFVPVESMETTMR
Sequence of NS3(TI) with S139A mutation (P26663 1027-1206 F1069L/A1092G/Q1106K/P1112Q/K1113A/S1148R/S1165A/F1173S/D1194Y): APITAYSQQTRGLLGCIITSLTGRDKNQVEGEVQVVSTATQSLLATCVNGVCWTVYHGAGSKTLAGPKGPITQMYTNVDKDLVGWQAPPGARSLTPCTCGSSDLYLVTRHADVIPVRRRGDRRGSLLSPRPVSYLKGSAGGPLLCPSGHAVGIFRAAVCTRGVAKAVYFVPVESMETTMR
Sequence of dNS3-Cre-PHI (P26663 1027-1206 A1092G/P1112Q/K1113A/S1165A/F1173S): as the sequence (P26663 1027-1206 A1092G/P1112Q/K1113A/S1165A/F1173S) above

SMILES	Luciferase activity, dose response (dNS3 [1])	Induction of Cre recombination, telaprevir inducible (TI) construct [2]	Drug sensitivity of NS3(TI) Cre with NS3 S139A mutation [3]	Dissociation of dNS3-PMED complexes (temporal turn-off) (dNS3 [4])	Effect of NS3 S139A mutation alone on drug induction of Cre (dNS3-Cre-PHI)	Luciferase activity, dose response with wild-type NS3 (wild-type NS3)
CC(C)(C)OC(=O)N[C@H]1CCCCC/C=C\[C@@H]2C[C@@]2(C(=O)NS(=O)(=O)C2CC2)NC(=O)[C@@H]2C[C@@H](OC(=O)N3Cc4cccc(F)c4C3)CN2C1=O [danoprevir, Danoprevir]	inhibit luciferase activity in a dose dependent manner					
CCC[C@H](NC(=O)[C@@H]1[C@H]2CCC[C@H]2CN1C(=O)[C@@H](NC(=O)[C@@H](NC(=O)c1cnccn1)C1CCCCC1)C(C)(C)C)C(=O)C(=O)NC1CC1 [telaprevir]	significant resistance	strongly induced	ablates telaprevir sensitivity	did not dissociate dNS3-PMD complexes well	reduce telaprevir sensitivity	effect is reverted
